Source: patent publication US20260098017A1, “NOVEL AROMATIC RING DERIVATIVE CONTAINING AMIDE SUBSTITUTION AND USE THEREOF” (TIANJIN PHARMACEUTICAL BIOTECHNOLOGY CO., LTD., priority 2022, published 2026)

The compounds below were run against Ba/F3 cell line expressing TYK2 (Homo sapiens, UniProt P29597, cells depend on it, form not given) (assay: In vitro cellular inhibition assay (Ba/F3 cell proliferation, CellTiter-Glo)). Conditions: read-out: IC50 (the source's name).
Type: cell-based
Method: The inhibitory effect of the compounds of formula (I) according to the present invention on the TYK2 signaling pathway in cells was assessed using the following method:
Instrumentation: SpectraMax Paradigm reader.
Method: in this experiment, a Ba/F3 cell line expressing TYK2 was employed to assess the effect of the compounds on cell proliferation inhibition by measuring their effects on cell activity in vitro.
Procedure: a CellTiter-Glo buffer was thawed and placed aside till room temperature. A CellTiter-Glo substrate was placed aside till room temperature and dissolved with the buffer to prepare a CellTiter-Glo working solution. To a 96-well flat bottom transparent drug plate, 98 μL of cell culture medium and 2 μL of gradient diluted compound solution were added. The drug plate was placed aside for 10 min, and then 50 μL of the CellTiter-Glo working solution was added. The drug plate was subsequently shaken on an orbital shaker for 2 min and placed aside at room temperature for an additional 10 min. Finally, the luminescence signal was measured on the SpectraMax Paradigm reader.
Data Analysis: the cell proliferation inhibition rate data were processed using the following formula:
Inhibition Rate (Inh %)=100−(RLUDrug−RLUMin)/(RLUMax−RLUMin)×100%.
The inhibition rates of compounds with different concentrations were calculated in EXCEL, and then GraphPad Prism software was employed to plot inhibition rate curve and calculate relevant parameters, including maximum and minimum cell inhibition rates, IC50 values.

GI50 | SMILES
5 to 10 nM | [2H]C([2H])([2H])NC(=O)c1cnc(NC(=O)C2CC2)cc1Nc1cccc(C(=O)Nc2cn(C)cn2)c1OC [Example 87]
5 to 10 nM | [2H]C([2H])([2H])NC(=O)c1nnc(NC(=O)C2CC2)cc1Nc1cccc(C(=O)Nc2cccc(C(C)C)c2)c1OC [Example 16]
5 to 10 nM | [2H]C([2H])([2H])NC(=O)c1nnc(NC(=O)C2CC2)cc1Nc1cccc(C(=O)Nc2cccc(C3CC3)c2)c1OC [Example 11]
5 to 10 nM | [2H]C([2H])([2H])NC(=O)c1nnc(NC(=O)C2CC2)cc1Nc1cccc(C(=O)Nc2cccc(C#N)c2)c1OC [Example 15]
5 to 10 nM | [2H]C([2H])([2H])NC(=O)c1cnc(NC(=O)C2CC2)cc1Nc1cccc(C(=O)Nc2ccccc2C)c1OC [Example 56]
5 to 10 nM | [2H]C([2H])([2H])NC(=O)c1nnc(NC(=O)C2CC2)cc1Nc1cccc(C(=O)Nc2ccc(OC)cc2)c1OC [Example 24]
5 to 10 nM | [2H]C([2H])([2H])NC(=O)c1nnc(NC(=O)C2CC2)cc1Nc1cccc(C(=O)Nc2ccc(C)nc2)c1OC [Example 44]
5 to 10 nM | [2H]C([2H])([2H])NC(=O)c1cnc(NC(=O)C2CC2)cc1Nc1cccc(C(=O)Nc2cc(C)cc(C)c2)c1OC [Example 61]
5 to 10 nM | [2H]C([2H])([2H])NC(=O)c1cnc(NC(=O)C2CC2)cc1Nc1cccc(C(=O)Nc2ncc(F)cn2)c1OC [Example 93]
5 to 10 nM | [2H]C([2H])([2H])NC(=O)c1cnc(NC(=O)C2CC2)cc1Nc1cccc(C(=O)Nc2ccc(C(C)C)cc2)c1OC [Example 72]
5 to 10 nM | [2H]C([2H])([2H])NC(=O)c1nnc(NC(=O)C2CC2)cc1Nc1cccc(C(=O)Nc2cccc(CC)c2)c1OC [Example 13]
5 to 10 nM | [2H]C([2H])([2H])NC(=O)c1nnc(NC(=O)C2CC2)cc1Nc1cccc(C(=O)Nc2cn(C)cn2)c1OC [Example 35]
5 to 10 nM | [2H]C([2H])([2H])NC(=O)c1nnc(NC(=O)C2CC2)cc1Nc1cccc(C(=O)Nc2cc(C)cc(C)c2)c1OC [Example 9]
5 to 10 nM | [2H]C([2H])([2H])NC(=O)c1cnc(NC(=O)C2CC2)cc1Nc1cccc(C(=O)Nc2cccc(C(C)C)c2)c1OC [Example 68]
5 to 10 nM | [2H]C([2H])([2H])NC(=O)c1nnc(NC(=O)C2CC2)cc1Nc1cccc(C(=O)NC(C)(C)C)c1OC [Example 105]
5 to 10 nM | [2H]C([2H])([2H])NC(=O)c1nnc(NC(=O)C2CC2)cc1Nc1cccc(C(=O)Nc2ccnc(C)c2)c1OC [Example 39]
5 to 10 nM | [2H]C([2H])([2H])NC(=O)c1cnc(NC(=O)C2CC2)cc1Nc1cccc(C(=O)Nc2ccc(F)c(C)c2)c1OC [Example 84]
5 to 10 nM | [2H]C([2H])([2H])NC(=O)c1nnc(NC(=O)C2CC2)cc1Nc1cccc(C(=O)Nc2cc(C)ccn2)c1OC [Example 37]
5 to 10 nM | [2H]C([2H])([2H])NC(=O)c1cnc(NC(=O)C2CC2)cc1Nc1cccc(C(=O)Nc2ccnc(C)c2)c1OC [Example 90]
5 to 10 nM | [2H]C([2H])([2H])NC(=O)c1cnc(NC(=O)C2CC2)cc1Nc1cccc(C(=O)Nc2ccc(C#N)c(C)c2)c1OC [Example 82]

GI50 | SMILES
5 to 10 nM | [2H]C([2H])([2H])NC(=O)c1nnc(NC(=O)C2CC2)cc1Nc1cccc(C(=O)Nc2ccc(C#N)cc2)c1OC [Example 23]
5 to 10 nM | [2H]C([2H])([2H])NC(=O)c1nnc(NC(=O)C2CC2)cc1Nc1cccc(C(=O)Nc2ccc(C(C)(C)C)cc2)c1OC [Example 21]
5 to 10 nM | [2H]C([2H])([2H])NC(=O)c1cnc(NC(=O)C2CC2)cc1Nc1cccc(C(=O)Nc2cccc(C3CC3)c2)c1OC [Example 63]
5 to 10 nM | [2H]C([2H])([2H])NC(=O)c1nnc(NC(=O)C2CC2)cc1Nc1cccc(C(=O)Nc2cccc(C)n2)c1OC [Example 40]
5 to 10 nM | [2H]C([2H])([2H])NC(=O)c1cnc(NC(=O)C2CC2)cc1Nc1cccc(C(=O)Nc2cccc(OC)c2)c1OC [Example 66]
5 to 10 nM | [2H]C([2H])([2H])NC(=O)c1nnc(NC(=O)C2CC2)cc1Nc1cccc(C(=O)Nc2ccc(F)c(C)c2)c1OC [Example 32]
5 to 10 nM | [2H]C([2H])([2H])NC(=O)c1cnc(NC(=O)C2CC2)cc1Nc1cccc(C(=O)NC(C)(C)C)c1OC [Example 106]
5 to 10 nM | [2H]C([2H])([2H])NC(=O)c1cnc(NC(=O)C2CC2)cc1Nc1cccc(C(=O)Nc2ccccc2F)c1OC [Example 59]
5 to 10 nM | [2H]C([2H])([2H])NC(=O)c1nnc(NC(=O)C2CC2)cc1Nc1cccc(C(=O)Nc2cccc(OC)c2)c1OC [Example 14]
5 to 10 nM | [2H]C([2H])([2H])NC(=O)c1cnc(NC(=O)C2CC2)cc1Nc1cccc(C(=O)Nc2ccccc2)c1OC [Example 53]
5 to 10 nM | [2H]C([2H])([2H])NC(=O)c1cnc(NC(=O)C2CC2)cc1Nc1cccc(C(=O)Nc2cncnc2)c1OC [Example 104]
5 to 10 nM | [2H]C([2H])([2H])NC(=O)c1nnc(NC(=O)C2CC2)cc1Nc1cccc(C(=O)Nc2cccc(C(F)(F)F)c2)c1OC [Example 12]
5 to 10 nM | [2H]C([2H])([2H])NC(=O)c1cnc(NC(=O)C2CC2)cc1Nc1cccc(C(=O)Nc2cccc(CC)c2)c1OC [Example 65]
5 to 10 nM | [2H]C([2H])([2H])NC(=O)c1cnc(NC(=O)C2CC2)cc1Nc1cccc(C(=O)Nc2ncc(C)cn2)c1OC [Example 97]
5 to 10 nM | [2H]C([2H])([2H])NC(=O)c1nnc(NC(=O)C2CC2)cc1Nc1cccc(C(=O)Nc2ccc(CC)cc2)c1OC [Example 18]
5 to 10 nM | [2H]C([2H])([2H])NC(=O)c1nnc(NC(=O)C2CC2)cc1Nc1cccc(C(=O)Nc2ncn(C)n2)c1OC [Example 36]
5 to 10 nM | [2H]C([2H])([2H])NC(=O)c1cnc(NC(=O)C2CC2)cc1Nc1cccc(C(=O)Nc2cc(C)ccn2)c1OC [Example 92]
5 to 10 nM | [2H]C([2H])([2H])NC(=O)c1nnc(NC(=O)C2CC2)cc1Nc1cccc(C(=O)Nc2ccccn2)c1OC [Example 48]
5 to 10 nM | [2H]C([2H])([2H])NC(=O)c1cnc(NC(=O)C2CC2)cc1Nc1cccc(C(=O)Nc2cccc(C#N)c2)c1OC [Example 67]
5 to 10 nM | [2H]C([2H])([2H])NC(=O)c1nnc(NC(=O)C2CC2)cc1Nc1cccc(C(=O)Nc2ccc(F)nc2)c1OC [Example 46]

GI50 | SMILES
5 to 10 nM | [2H]C([2H])([2H])NC(=O)c1cnc(NC(=O)C2CC2)cc1Nc1cccc(C(=O)Nc2ncccn2)c1OC [Example 103]
5 to 10 nM | [2H]C([2H])([2H])NC(=O)c1nnc(NC(=O)C2CC2)cc1Nc1cccc(C(=O)Nc2ccc(C)cn2)c1OC [Example 43]
5 to 10 nM | [2H]C([2H])([2H])NC(=O)c1nnc(NC(=O)C2CC2)cc1Nc1cccc(C(=O)Nc2cccc(C(C)(C)C)c2)c1OC [Example 17]
5 to 10 nM | [2H]C([2H])([2H])NC(=O)c1cnc(NC(=O)C2CC2)cc1Nc1cccc(C(=O)Nc2cccc(F)c2)c1OC [Example 58]
5 to 10 nM | [2H]C([2H])([2H])NC(=O)c1cnc(NC(=O)C2CC2)cc1Nc1cccc(C(=O)Nc2cccnc2)c1OC [Example 101]
5 to 10 nM | [2H]C([2H])([2H])NC(=O)c1nnc(NC(=O)C2CC2)cc1Nc1cccc(C(=O)Nc2ccccc2)c1OC [Example 1]
5 to 10 nM | [2H]C([2H])([2H])NC(=O)c1nnc(NC(=O)C2CC2)cc1Nc1cccc(C(=O)Nc2ccc(C(F)(F)F)c(C)c2)c1OC [Example 29]
5 to 10 nM | [2H]C([2H])([2H])NC(=O)c1nnc(NC(=O)C2CC2)cc1Nc1cccc(C(=O)Nc2ccn(C)n2)c1OC [Example 33]
5 to 10 nM | [2H]C([2H])([2H])NC(=O)c1cnc(NC(=O)C2CC2)cc1Nc1cccc(C(=O)Nc2ccc(C3CC3)c(C)c2)c1OC [Example 78]
5 to 10 nM | [2H]C([2H])([2H])NC(=O)c1nnc(NC(=O)C2CC2)cc1Nc1cccc(C(=O)Nc2ccc(C(C)(C)C)c(C)c2)c1OC [Example 28]
5 to 10 nM | [2H]C([2H])([2H])NC(=O)c1cnc(NC(=O)C2CC2)cc1Nc1cccc(C(=O)Nc2ccc(C)cn2)c1OC [Example 95]
5 to 10 nM | [2H]C([2H])([2H])NC(=O)c1cnc(NC(=O)C2CC2)cc1Nc1cccc(C(=O)Nc2ccc(C#N)cc2)c1OC [Example 75]
5 to 10 nM | [2H]C([2H])([2H])NC(=O)c1nnc(NC(=O)C2CC2)cc1Nc1cccc(C(=O)Nc2cnc(F)nc2)c1OC [Example 47]
5 to 10 nM | [2H]C([2H])([2H])NC(=O)c1cnc(NC(=O)C2CC2)cc1Nc1cccc(C(=O)Nc2cccc(C(F)(F)F)c2)c1OC [Example 64]
5 to 10 nM | [2H]C([2H])([2H])NC(=O)c1nnc(NC(=O)C2CC2)cc1Nc1cccc(C(=O)Nc2ccccc2F)c1OC [Example 7]
5 to 10 nM | [2H]C([2H])([2H])NC(=O)c1cnc(NC(=O)C2CC2)cc1Nc1cccc(C(=O)Nc2ccncc2)c1OC [Example 102]
5 to 10 nM | [2H]C([2H])([2H])NC(=O)c1nnc(NC(=O)C2CC2)cc1Nc1cccc(C(=O)Nc2ncc(F)cn2)c1OC [Example 41]
5 to 10 nM | [2H]C([2H])([2H])NC(=O)c1cnc(NC(=O)C2CC2)cc1Nc1cccc(C(=O)Nc2ccc(F)nc2)c1OC [Example 98]
5 to 10 nM | [2H]C([2H])([2H])NC(=O)c1nnc(NC(=O)C2CC2)cc1Nc1cccc(C(=O)Nc2cncnc2)c1OC [Example 52]
